Measurements reported in US8465912B2, “Methods for the identification of agents that inhibit mesenchymal-like tumor cells or their formation” (OSI Pharmaceuticals, LLC, priority 2009, dated 2013).

Key:
Type in all cases: cell-based, human
H1650 cells [1] = test: Induction of EMT by growth factors and cytokines in 2D culture (immunoblot, morphology, confocal); details: H1650 2D; for E-cadherin localization by confocal microscopy: 7 days ligand, untreated cells show membrane E-cadherin; for Induction of EMT (E-cadherin, vimentin, morphology): 7 days, HGF, EGF, OSM 100 ng/ml, TGFβ1 10 ng/ml, TNFα 25 ng/ml
Method: (§1) The human cell line, H1650 was cultured in […] containing 10% FBS, 2 mM L-Glutamine, and 1 mM sodium pyruvate, at 37° C., 5% CO2. Growth factor and cytokine induced EMT was monitored over 7 days. Growth factor and cytokines were obtained from commercial sources and used as follows: HGF (Hepatocyte growth factor) at 100 ng/ml, EGF (Epidermal Growth Factor) at 100 ng/ml, OSM (Oncostatin M) at 100 ng/ml, TGFβ1 (Transforming growth factor, beta 1) at 10 ng/ml, and TNFα (Tumor necrosis factor alpha) at 25 ng/ml.
Cells were harvested by washing once with PBS, and lysing on ice for 10 minutes with scraping (using a Cell Lifter, Corning Inc. #3008) in ice cold RIPA buffer (Sigma R0278) containing Protease inhibitor (Sigma P8340), Phosphatase inhibitors (Sigma P2850, P5726) and 200 μM Sodium Vanadate. Supernatents were micro-centrifuged at max speed, 4° C. for 10 minutes. Protein content was quantitated using the BCA method (Pierce #23225) and samples were normalized to total protein in Laemli buffer and heated at 100° C. for 10 minutes. SDS PAGE was run using a Bis-Tris gel system (Invitrogen NuPAGE) with MOPS buffer (Invitrogen NP0001), transferred onto nitrocellulose using the iBLOT system (Invitrogen) and blocked in PBS-T (0.1% Tween 20), 5% non-fat milk or BSA in guidance with primary Ab supplier requirements. All primary antibodies were incubated overnight at 4° C. in PBS-T (0.1% Tween 20) in either 5% non-fat milk or BSA, diluted to the following working dilutions: anti E Cadherin (Santa Cruz #sc-21791) 1:500 dilution; anti Vimentin (BD Biosciences #550513) 1:2000 dilution;); 1:1000 dilution; anti β-Actin (Sigma, A5441) 1:10,000 dilution. Secondary HRP labeled antibodies used were: anti Rabbit IgG HRP (Amersham NA934) 1:5000 dilution; anti Mouse IgG HRP (Sigma A2304) 1:2000 dilution. Membranes were visualized using the Supersignal ELISA Femto Maximum Sensitivity Substrate (Pierce).
Cells were fixed in 4% paraformaldehyde (Electron Microscopy Sciences #15710)/PBS (Gibco#14190) for 10 minutes at room temperature, washed with PBS and permeabilized with 0.1% Triton X100 (Sigma P1379) in PBS for 10 minutes at room temp. Cells were blocked with 3% BSA/PBS for at least 15 minutes then incubated with primary antibody diluted in blocking buffer for a minimum of two hours at room temperature. Anti E-Cadherin was used at a 1:75 dilution and anti Vimentin (Millipore #AB5733) was used at a 1:2000 dilution. Cells were washed, incubated with fluorescently-labeled secondary antibodies for one hour, followed by a 5 minute TO-PRO3 nuclear counterstain (Invitrogen #T3605) at room temperature, washed and mounted on slides with Pro-Long Gold anti-fade reagent (Invitrogen #P36934). Secondary fluorescent antibodies used were: anti mouse 488 nm (Invitrogen #A11029) 1:600 dilution; anti chicken TRITC (Chemicon #AP194R) 1:50 dilution. Stained cells were captured on a Leica DMRXE microscope/SP2 scanner using Leica Confocal Software (LCS).
The ability of cell lines to undergo epithelial to mesenchymal transition (EMT) was investigated using different extracellular ligand drivers. A panel of NSCLC, pancreatic, and breast cancer cell lines were screened by treatment of cells for 7 days in presence of respective ligands, either singly or in combination. Initial screening determined the ability of the ligand to cause morphology change, to down-regulate the epithelial marker, E-cadherin or to up-regulate a mesenchymal marker such as vimentin. Potential EMT cell models should up-regulate a mesenchymal marker and display morphology change. More robust models would show a down-regulation of E-cadherin expression.

H1650 cells [2] = test: Pharmacological inhibition of ligand-induced EMT (Western blot, morphology); details: MEK inhibitor 1 1 μM, LY294002 10 μM, JAK inhibitor 1 0.25 μM
Method: Supernatents were micro-centrifuged at max speed, 4° C. for 10 minutes. […] SDS PAGE was run using a Bis-Tris gel system (Invitrogen NuPAGE) with MOPS buffer (Invitrogen NP0001), transferred onto nitrocellulose using the iBLOT system (Invitrogen) and blocked in PBS-T (0.1% Tween 20), 5% non-fat milk or BSA in guidance with primary Ab supplier requirements. […] Secondary HRP labeled antibodies used were: anti Rabbit IgG HRP (Amersham NA934) 1:5000 dilution; anti Mouse IgG HRP (Sigma A2304) 1:2000 dilution. Membranes were visualized using the Supersignal ELISA Femto Maximum Sensitivity Substrate (Pierce).
Cells were treated with inhibitor 30 minutes prior to ligand stimulation. Medium, inhibitor and ligand were refreshed on experimental day 3 to 4. Cells were photographed and lysed in RIPA buffer on day 7 for Western blotting.
To determine what signaling pathways are important for EMT in this model, cells were stimulated for 7 days with OSM, HGF+OSM or OSM+TGFβ in the presence of inhibitors to MEK, PI3K and JAK, since these pathways are established downstream effectors of these ligands. After 7 days, we photographed the cells to show morphology and harvested the cells to analyze markers by immunoblot (FIG. 6).

H1650 cells [3] = test: Doubling time of ligand-treated H1650 cells; details: 7 days ligand, doubling time over following two weeks, versus untreated
Method: as §1
Cells were plated and treated with ligand for 7 days. On day 7, cells were counted and re-plated on 6 cm cell culture dishes. On days 3, 5, 7, 10 and 12, cells were trypsinized and counted to determine the total number of cells in the dish, in duplicate. Doubling time was calculated using the multiple time point method on the website www.doubling-time.com.

H1650 cells [4] = test: qPCR of EMT gene changes in response to ligand treatment; details: 7 days ligand, qPCR normalized to GAPDH and untreated control
Method: as §1
Cells were plated and treated with ligand for 7 days. At the time of harvest, cells were trypsinized and snap frozen for later use. Total RNA was isolated using RNAqueous-4 PCR Kit (Ambion, AM1914). Samples were DNase treated using the Turbo DNA-Free kit (Ambion, AM1907) and reverse transcribed using Superscript III (Invitrogen, 18080-044) for qPCR analysis. Taqman primers and Locked-Nucleic Acid probes were designed using ProbeFinder software (Universal Probe library, Roche). For mRNA analysis, real time PCR was performed using the ABI 7900HT series PCR machine. Thermocycle conditions were as follows: 50° C. for 2 minutes, 95° C. for 10 minutes, 95° C. for 15 seconds, 50° C. for 10 seconds, 60° C. for 1 minute. Data was collected over 45 cycles and then normalized to GAPDH and further normalized to the untreated control sample.

EGF: Epidermal Growth Factor, commercial protein ligand used at 100 ng/ml
E-cadherin localization by confocal microscopy (H1650 cells [1]): absence of E-cadherin or mislocalization of E-cadherin to the cytoplasm | Induction of EMT (E-cadherin, vimentin, morphology) (H1650 cells [1]): partial EMT

TNFα
Induction of EMT (E-cadherin, vimentin, morphology) (H1650 cells [1]): do not stimulate EMT by themselves

CC(C)(C)c1nc2c3cc[nH]c(=O)c3c3cc(F)ccc3c2[nH]1 [JAK inhibitor 1]
Effect on HGF+OSM-induced EMT (H1650 cells [2]; 7 days HGF+OSM): partial | Effect on OSM+TGFβ-induced EMT (H1650 cells [2]; 7 days OSM+TGFβ): near complete block | Effect on OSM-induced EMT (H1650 cells [2]; 7 days OSM): near complete block | Effect on EMT in all three ligand models (OSM, HGF+OSM, OSM+TGFβ) (H1650 cells [2]; 7 days, immunoblot and morphology): blocked EMT to varying degrees

HGF: Hepatocyte growth factor, commercial protein ligand used at 100 ng/ml to induce EMT in H1650 cells
Change in doubling time (H1650 cells [3]): modest decrease | ACTN1 gene change (H1650 cells [4]): NC (Fold changes less than 3 are reported as NC) | CDH1 gene change (H1650 cells [4]): NC (Fold changes less than 3 are reported as NC) | CDH2 gene change (H1650 cells [4]): NC (Fold changes less than 3 are reported as NC) | CLDN3 gene change (H1650 cells [4]): NC (Fold changes less than 3 are reported as NC) | ERBB3 gene change (H1650 cells [4]): NC (Fold changes less than 3 are reported as NC) | ITGB3 gene change (H1650 cells [4]): NC (Fold changes less than 3 are reported as NC) | MTA3 gene change (H1650 cells [4]): NC (Fold changes less than 3 are reported as NC) | OCLN gene change (H1650 cells [4]): NC (Fold changes less than 3 are reported as NC) | PLAUR gene change (H1650 cells [4]): NC (Fold changes less than 3 are reported as NC) | SNAI1 gene change (H1650 cells [4]): NC (Fold changes less than 3 are reported as NC) | SNAI2 gene change (H1650 cells [4]): 6.43 fold change | SPARC gene change (H1650 cells [4]): NC (Fold changes less than 3 are reported as NC) | TJP3 gene change (H1650 cells [4]): NC (Fold changes less than 3 are reported as NC) | TWIST1 gene change (H1650 cells [4]): NC (Fold changes less than 3 are reported as NC) | VCAN gene change (H1650 cells [4]): 6.71 fold change | VIM gene change (H1650 cells [4]): 4.92 fold change | ZEB1 gene change (H1650 cells [4]): NC (Fold changes less than 3 are reported as NC) | ZEB2 gene change (H1650 cells [4]): NC (Fold changes less than 3 are reported as NC) | E-cadherin localization by confocal microscopy (H1650 cells [1]): absence of E-cadherin or mislocalization of E-cadherin to the cytoplasm | Induction of EMT (E-cadherin, vimentin, morphology) (H1650 cells [1]): partial EMT

TGFβ: Transforming growth factor, beta 1, used at 10 ng/ml
Change in doubling time (H1650 cells [3]): no effect | CDH1 gene change (H1650 cells [4]): NC (Fold changes less than 3 are reported as NC) | CDH2 gene change (H1650 cells [4]): NC (Fold changes less than 3 are reported as NC) | CLDN3 gene change (H1650 cells [4]): NC (Fold changes less than 3 are reported as NC) | ERBB3 gene change (H1650 cells [4]): NC (Fold changes less than 3 are reported as NC) | ITGB3 gene change (H1650 cells [4]): NC (Fold changes less than 3 are reported as NC) | MTA3 gene change (H1650 cells [4]): NC (Fold changes less than 3 are reported as NC) | OCLN gene change (H1650 cells [4]): NC (Fold changes less than 3 are reported as NC) | PLAUR gene change (H1650 cells [4]): NC (Fold changes less than 3 are reported as NC) | SNAI1 gene change (H1650 cells [4]): NC (Fold changes less than 3 are reported as NC) | SNAI2 gene change (H1650 cells [4]): 4.9 fold change | SPARC gene change (H1650 cells [4]): NC (Fold changes less than 3 are reported as NC) | TJP3 gene change (H1650 cells [4]): NC (Fold changes less than 3 are reported as NC) | TWIST1 gene change (H1650 cells [4]): NC (Fold changes less than 3 are reported as NC) | VCAN gene change (H1650 cells [4]): 5.04 fold change | VIM gene change (H1650 cells [4]): 3.99 fold change | ZEB1 gene change (H1650 cells [4]): NC (Fold changes less than 3 are reported as NC) | ZEB2 gene change (H1650 cells [4]): NC (Fold changes less than 3 are reported as NC) | Induction of EMT (E-cadherin, vimentin, morphology) (H1650 cells [1]): do not stimulate EMT by themselves

B1: OSM: Oncostatin M, commercial cytokine used at 100 ng/ml (protein, UniProt P13725 26-221, looked up)
Oncostatin-M: AAIGSCSKEYRVLLGQLQKQTDLMQDTSRLLDPYIRIQGLDVPKLREHCRERPGAFPSEETLRGLGRRGFLQTLNATLGCVLHRLADLEQRLPKAQDLERSGLNIEDLEKLQMARPNILGLRNNIYCMAQLLDNSDTAEPTKAGRGASQPPTPTPASDAFQRKLEGCRFLHGYHRFMHSVGRVFSKWGESPNRSRR
Change in doubling time (H1650 cells [3]): modest decrease | ACTN1 gene change (H1650 cells [4]): NC (Fold changes less than 3 are reported as NC) | CDH1 gene change (H1650 cells [4]): NC (Fold changes less than 3 are reported as NC) | CDH2 gene change (H1650 cells [4]): NC (Fold changes less than 3 are reported as NC) | CLDN3 gene change (H1650 cells [4]): NC (Fold changes less than 3 are reported as NC) | ERBB3 gene change (H1650 cells [4]): NC (Fold changes less than 3 are reported as NC) | ITGB3 gene change (H1650 cells [4]): 13.25 fold change | MTA3 gene change (H1650 cells [4]): NC (Fold changes less than 3 are reported as NC) | OCLN gene change (H1650 cells [4]): NC (Fold changes less than 3 are reported as NC) | PLAUR gene change (H1650 cells [4]): NC (Fold changes less than 3 are reported as NC) | SNAI1 gene change (H1650 cells [4]): NC (Fold changes less than 3 are reported as NC) | SNAI2 gene change (H1650 cells [4]): 3.44 fold change | SPARC gene change (H1650 cells [4]): NC (Fold changes less than 3 are reported as NC) | TJP3 gene change (H1650 cells [4]): NC (Fold changes less than 3 are reported as NC) | TWIST1 gene change (H1650 cells [4]): NC (Fold changes less than 3 are reported as NC) | VCAN gene change (H1650 cells [4]): 3.88 fold change | VIM gene change (H1650 cells [4]): 4.18 fold change | ZEB1 gene change (H1650 cells [4]): 3.15 fold change | ZEB2 gene change (H1650 cells [4]): 4.43 fold change | Induction of EMT (E-cadherin, vimentin, morphology) (H1650 cells [1]): do not stimulate EMT by themselves
